In ChEMBL document CHEMBL4219271, “Synthesis and anti-proliferative activity of allogibberic acid derivatives containing 1,2,3-triazole pharmacophore” (Bioorg Med Chem Lett, 2018):

Legend:
Type in all cases: functional, cell-based
SW480 = assay: Cytotoxicity against human SW480 cells assessed as decrease in cell viability after 4 days by MTT assay; conditions: SW480, 96 h
MCF7 = assay: Cytotoxicity against human MCF7 cells assessed as decrease in cell viability after 4 days by MTT assay; conditions: MCF7, 96 h
A549 = assay: Cytotoxicity against human A549 cells assessed as decrease in cell viability after 4 days by MTT assay; conditions: A549, 96 h
SMMC-7721 = assay: Cytotoxicity against human SMMC7721 cells assessed as decrease in cell viability after 4 days by MTT assay; conditions: SMMC-7721, 96 h
HL-60 = assay: Cytotoxicity against human HL60 cells assessed as decrease in cell viability after 4 days by MTT assay; conditions: HL-60, 96 h

Measured: IC50

Cc1ccc(S(=O)(=O)Oc2ccc3c(c2C)[C@H](Cn2cc(-c4ccc(F)cc4)nn2)[C@@]24CC(=O)[C@@](C)(CC[C@@H]32)C4)cc1
> 20 µM: SW480 | MCF7 | A549 | SMMC-7721 | HL-60

COc1ccc(-c2cn(C[C@H]3c4c(ccc(O)c4C)[C@@H]4CC[C@@]5(C)C[C@]43CC5=O)nn2)cc1
> 20 µM: SW480 | MCF7 | A549 | SMMC-7721 | HL-60

C=C1C[C@]23C[C@@]1(O)CC[C@H]2c1ccc(OS(=O)(=O)c2ccc(C)cc2)c(C)c1[C@@H]3Cn1cc(-c2ccccn2)nn1
> 20 µM: SW480 | MCF7 | A549 | SMMC-7721 | HL-60

C=C1C[C@]23C[C@@]1(O)CC[C@H]2c1ccc(O)c(C)c1[C@@H]3Cn1cc(-c2ccc(C)cc2)nn1
> 20 µM: SW480 | MCF7 | A549 | SMMC-7721 | HL-60

C=C1C[C@]23C[C@@]1(O)CC[C@H]2c1ccc(OS(=O)(=O)c2ccc(C)cc2)c(C)c1[C@@H]3Cn1cc(-c2ccc(Cl)cc2)nn1
> 20 µM: SW480 | MCF7 | A549 | SMMC-7721 | HL-60

Cc1c(O)ccc2c1[C@H](Cn1cc(-c3ccccc3)nn1)[C@@]13CC(=O)[C@@](C)(CC[C@@H]21)C3
> 20 µM: SW480 | MCF7 | A549 | SMMC-7721 | HL-60

C=C1C[C@]23C[C@@]1(O)CC[C@H]2c1cc(Br)c(O)c(C)c1[C@@H]3Cn1cc(-c2ccc(OC)cc2)nn1
> 20 µM: SW480 | MCF7 | A549 | SMMC-7721 | HL-60

Cc1c(O)ccc2c1[C@H](Cn1cc(-c3ccc(F)cc3)nn1)[C@@]13CC(=O)[C@@](C)(CC[C@@H]21)C3
> 20 µM: SW480 | MCF7 | A549 | SMMC-7721 | HL-60

C=C1C[C@]23C[C@@]1(O)CC[C@H]2c1ccc(OS(=O)(=O)c2ccc(C)cc2)c(C)c1[C@@H]3Cn1cc(-c2ccccc2)nn1
> 20 µM: SW480 | MCF7 | A549 | SMMC-7721 | HL-60

C=C1C[C@]23C[C@@]1(O)CC[C@H]2c1cc(Br)c(O)c(C)c1[C@@H]3Cn1cc(-c2ccc(C)cc2)nn1
> 20 µM: SW480 | MCF7 | A549 | SMMC-7721 | HL-60

C=C1C[C@]23C[C@@]1(O)CC[C@H]2c1cc(Br)c(O)c(C)c1[C@@H]3Cn1cc(-c2ccc(C(F)(F)F)cc2)nn1
7.38 µM: HL-60
15.2 µM: SW480
9.28 µM: A549
8.1 µM: MCF7
12.8 µM: SMMC-7721

C=C1C[C@]23C[C@@]1(O)CC[C@H]2c1ccc(O)c(C)c1[C@@H]3Cn1cc(-c2ccc(Br)cc2)nn1
> 20 µM: SW480 | MCF7 | A549 | SMMC-7721 | HL-60

Cc1ccc(S(=O)(=O)Oc2ccc3c(c2C)[C@H](Cn2cc(-c4ccc(Br)cc4)nn2)[C@@]24CC(=O)[C@@](C)(CC[C@@H]32)C4)cc1
> 20 µM: SW480 | MCF7 | A549 | SMMC-7721 | HL-60

C=C1C[C@]23C[C@@]1(O)CC[C@H]2c1ccc(O)c(C)c1[C@@H]3Cn1cc(-c2ccccc2)nn1
> 20 µM: SW480 | MCF7 | A549 | SMMC-7721 | HL-60

Cc1c(O)ccc2c1[C@H](Cn1cc(-c3ccccn3)nn1)[C@@]13CC(=O)[C@@](C)(CC[C@@H]21)C3
> 20 µM: SW480 | MCF7 | A549 | SMMC-7721 | HL-60

C=C1C[C@]23C[C@@]1(O)CC[C@H]2c1cc(Br)c(O)c(C)c1[C@@H]3Cn1cc(-c2ccc(Cl)cc2)nn1
18 µM: SW480
5.59 µM: HL-60
10.2 µM: MCF7
10.5 µM: A549
19.1 µM: SMMC-7721

C=C1C[C@]23C[C@@]1(O)CC[C@H]2c1ccc(O)c(C)c1[C@@H]3Cn1cc(-c2ccc(Cl)cc2)nn1
> 20 µM: SW480 | MCF7 | A549 | SMMC-7721 | HL-60

COc1ccc(-c2cn(C[C@H]3c4c(ccc(OS(=O)(=O)c5ccc(C)cc5)c4C)[C@@H]4CC[C@@]5(C)C[C@]43CC5=O)nn2)cc1
> 20 µM: SW480 | MCF7 | A549 | SMMC-7721 | HL-60

C=C1C[C@]23C[C@@]1(O)CC[C@H]2c1ccc(OS(=O)(=O)c2ccc(C)cc2)c(C)c1[C@@H]3Cn1cc(-c2ccc(F)cc2)nn1
> 20 µM: SW480 | MCF7 | A549 | SMMC-7721 | HL-60
